Test results reported in US20220380310A1, “P2X7R ANTAGONISTS” (priority 2019, published 2022).
Where a name gives a salt, the structure may show the parent alone.

How the values were obtained:
[1] = target: T1, P2X7R (Homo sapiens, UniProt Q99572); experiment: Yo-Pro-1 uptake assay (Yo-Pro-1 Assay) in HEK-293 cells transiently transfected with P2X7R; type: cell-based; details: for remaining activity at 5 µM: HEK293, read-out: Percentage of activity remains in the presence of the compound at 5 μM, P2X7R (Yo-Pro-1 Assay); for IC50: HEK-293 cells transiently transfected with P2X7R, 30 μM bzATP as stimulus, readings 1 hour after stimulation, estimated from dose-response curves
T1 construct: expressed in transfected cells; host or cells: HEK-293
T1 sequence (Q99572 1-595): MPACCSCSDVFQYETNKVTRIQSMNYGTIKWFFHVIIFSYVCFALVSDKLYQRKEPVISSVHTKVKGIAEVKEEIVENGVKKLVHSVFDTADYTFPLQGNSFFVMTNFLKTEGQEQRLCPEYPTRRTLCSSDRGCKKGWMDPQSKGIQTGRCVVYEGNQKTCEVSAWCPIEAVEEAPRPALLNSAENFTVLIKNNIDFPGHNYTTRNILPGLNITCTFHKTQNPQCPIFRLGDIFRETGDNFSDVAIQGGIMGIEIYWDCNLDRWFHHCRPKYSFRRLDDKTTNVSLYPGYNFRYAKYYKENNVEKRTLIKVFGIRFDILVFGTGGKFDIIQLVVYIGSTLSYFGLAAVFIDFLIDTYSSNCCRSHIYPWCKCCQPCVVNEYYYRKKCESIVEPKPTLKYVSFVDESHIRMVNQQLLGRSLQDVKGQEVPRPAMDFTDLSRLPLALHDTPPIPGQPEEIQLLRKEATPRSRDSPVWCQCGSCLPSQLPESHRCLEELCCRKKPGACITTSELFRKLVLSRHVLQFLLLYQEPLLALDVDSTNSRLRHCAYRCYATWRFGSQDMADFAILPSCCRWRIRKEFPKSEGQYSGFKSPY
Text: (§1) Yo-Pro-1 Iodide (Cat. No Y3603 from Fisher Scientific) is a fluorescent DNA-binding dye with a MW of 629 Da. This method is based upon the Yo-Pro-1 entrance to cells through the dilated or “large pore form” of P2X7R and its binding to intracellular DNA whereby it increases its fluorescence intensity (J. Pharmacol. Exp. Ther. 308, 1053-1061). The dye has an absorption spectrum compatible with excitation at 488 nm by argon laser sources and its emission wavelength is in the range of 515-575 nm. This Yo-Pro-1 uptake was measured in HEK-293 cells transiently transfected with P2X7R (J. Biol. Chem. 290, 7930-7942). In Brief, HEK-293 cells were seeded in growth medium at approximately 20,000 cells/well in a 96-well plate on day 1. Transfection was performed on day 2 using Lipofectamine 2000 with the P2X7R DNA plasmid at the concentration of 1.7 μg/ml. The transfection solution was replaced with the growth medium 4 hours later. Fluorescent assays were conducted on day 4. On day 4, the medium was removed, the cells were washed with phosphate buffered saline (PBS) (Cat. No. MT21040CV from Fisher Scientific). Then, 25 μl of PBS were first loaded to each well followed by 25 μl of various test compounds. The third 25 μl of solution contained a mixture of Yo-Pro-1 and stimulus bzATP (2′(3′)-O-(4-Benzoylbenzoyl)adenosine-5′-triphosphate tri(triethylammonium) salt). The final concentration of Yo-Pro-1 was 2.5 μM and of bzATP 30 μM. Fluorescence increases were measured every 30 minutes in a microplate device with excitation at 475 nm and emission wavelength in the range of 500-550 nm. PPADS (Pyridoxalphosphate-6-azophenyl-2′,4′-disulfonic acid tetrasodium) was used as the positive control. The wells with no test compounds added nor bzATP and only containing PBS and Yo-Pro-1 were served as the negative control (N Contl). The positive control (P Contl) wells were the same as N Contl but contained the stimulus, bzATP in this case.
(§2) Data used for analysis were from microplate readings 1 hour after bzATP stimulation. The result of each well was first normalized by its corresponding base microplate reading. The base microplate reading was the first reading right after all components were added. Then, the negative control signal was subtracted from. In the negative control, the test compound and the stimulus were replaced by PBS. An average of six highest values of the plate (AVG) were considered as 100% and the value of each well was divided by AVG and presented as the relative values in percentages.
For comparison of the antagonistic effectiveness of the compounds of this invention among P2X receptors, assays were conducted at 5 μM. Among 55 compounds tested, 29 can reduce the P2X7R activity to […] of the normal activity (Table 2).

[2] = target: T2, Human P2X2 receptor (P2X2R) (Homo sapiens, UniProt Q9UBL9); experiment: Yo-Pro-1 uptake assay, P2X2R transfected HEK-293 cells; type: cell-based; details: 5 μM ATP stimulus; for remaining activity at 5 µM: HEK293, compound at 5 μM, read-out: Percentage of activity remains in the presence of the compound at 5 μM, P2X2R (Yo-Pro-1 Assay)
T2 construct: expressed in transfected cells; host or cells: HEK-293
T2 sequence (Q9UBL9 1-471): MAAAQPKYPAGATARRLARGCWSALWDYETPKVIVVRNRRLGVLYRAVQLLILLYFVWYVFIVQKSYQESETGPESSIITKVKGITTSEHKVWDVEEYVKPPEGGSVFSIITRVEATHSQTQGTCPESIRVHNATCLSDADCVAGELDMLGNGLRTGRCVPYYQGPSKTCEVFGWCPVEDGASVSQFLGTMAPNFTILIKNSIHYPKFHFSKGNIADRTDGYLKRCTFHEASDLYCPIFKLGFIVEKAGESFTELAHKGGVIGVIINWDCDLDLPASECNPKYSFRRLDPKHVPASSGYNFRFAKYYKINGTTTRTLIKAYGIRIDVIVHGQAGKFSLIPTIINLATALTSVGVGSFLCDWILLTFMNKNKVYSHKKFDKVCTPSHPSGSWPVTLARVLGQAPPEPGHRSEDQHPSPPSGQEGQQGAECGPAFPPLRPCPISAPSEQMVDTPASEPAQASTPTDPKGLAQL
Text: as §1, §2
Human P2X2 receptor (P2X2R) construct (J. Biol. Chem. 290, 7930-7942) was transiently transfected to HEK-293 cells and the Yo-Pro-1 assay was performed as described above. When 5 μM ATP was used as the stimulus, the elevation of receptor mediated activity can be seen in 10 minutes.

[3] = compound at 5 μM, 30 μM bzATP stimulus, reading 1 hour after stimulation, transfected HEK-293 cells

Row | SMILES | Percentage of activity remains in the presence of the compound at 5 μM, P2X7R (Yo-Pro-1 Assay) [1, 3] [%] | Percentage of activity remains in the presence of the compound at 5 μM, P2X2R (Yo-Pro-1 Assay) [2] [%] | remaining activity at 5 µM [1, 3] [%] | IC50 [1] [µM] | remaining activity at 5 µM [2] [%]
1 | Cc1nc(N=Nc2ccc(S(=O)(=O)[O-])cc2S(=O)(=O)[O-])c(COP(=O)([O-])[O-])c(C=O)c1O.[Na+].[Na+].[Na+].[Na+] [PPADS, Pyridoxalphosphate-6-azophenyl-2′,4′-disulfonic acid tetrasodium, reference compound] | 0.7 | 29.6 | – | – | –
2 | CS(=O)(=O)c1ccc(N2CCCC(NC(=O)CCc3ccccc3)C2)cc1 (centres unmarked) [#1] | – | – | 20 | 3.9 | 44
3 | CC1CCN(c2ccc(S(=O)(=O)N3CCCC(NC(=O)CCc4ccccc4)C3)cc2)CC1 (centres unmarked) [#40] | – | – | 9.1 | 0.8 | 69.1
4 | O=C(CCc1ccccc1)NC1CCCN(c2ccc(S(=O)(=O)Nc3ccccc3)cc2)C1 (centres unmarked) [#50] | – | – | -1.1 | 0.6 | 59.7
5 | COc1ccc(S(=O)(=O)N2CCCC(NC(=O)CCc3ccccc3)C2)cc1 (centres unmarked) [#2] | – | – | 15.8 | 2.8 | 54.6
6 | O=C(CCc1ccccc1)N1CCN(S(=O)(=O)c2ccc(F)cc2)CC1 [#30] | – | – | 52.2 | 1490 | 74.9
7 | O=C(NCCc1ccccc1)C1CCN(S(=O)(=O)c2ccc(N3CCCCC3)cc2)CC1 [#20] | – | – | 7 | 1 | 61.5
8 | CCOc1ccc(S(=O)(=O)N2CCCC(NC(=O)CCc3ccccc3)C2)cc1 (centres unmarked) [#37] | – | – | 82.7 | 28.5 | 58.1
9 | O=C(CCc1ccccc1)NC1CCCN(S(=O)(=O)Cc2ccc(Br)cc2)C1 (centres unmarked) [#8] | – | – | -14.5 | 2.1 | 63.8
10 | O=C(CCc1ccccc1)N1CCNCC1 [#29, hydrochloride] | – | – | 88.1 | 10.1 | 89.4
11 | O=C(CCc1ccccc1)NC1CCCN(S(=O)(=O)c2ccc(N3CCCCC3)cc2)C1 (centres unmarked) [#5] | – | – | -7.3 | 0.2 | 55.5
12 | NS(=O)(=O)c1ccc(N2CCCC(NC(=O)CCc3ccccc3)C2)cc1 (centres unmarked) [#53] | – | – | -0.5 | 4.6 | 70.9
13 | CCCCNc1ccc(S(=O)(=O)N2CCC(C(=O)O)CC2)cc1 [#27] | – | – | 59 | 9.3 | 55.4
14 | CC(C)S(=O)(=O)c1ccc(N2CCCC(NC(=O)CCc3ccccc3)C2)cc1 (centres unmarked) [#7] | – | – | 14.1 | 6 | 77.6
15 | CC1CCCN(c2ccc(S(=O)(=O)N3CCCC(NC(=O)CCc4ccccc4)C3)cc2)C1 (centres unmarked) [#44] | – | – | -5.1 | 0.1 | 61.4
16 | O=C1CCC(N2Cc3c(NC(=O)CCc4ccccc4)cccc3C2=O)C(=O)N1 (centres unmarked) [#16] | – | – | 26 | 3.6 | 83.8

Row | SMILES | Percentage of activity remains in the presence of the compound at 5 μM, P2X7R (Yo-Pro-1 Assay) [1, 3] [%] | Percentage of activity remains in the presence of the compound at 5 μM, P2X2R (Yo-Pro-1 Assay) [2] [%] | remaining activity at 5 µM [1, 3] [%] | IC50 [1] [µM] | remaining activity at 5 µM [2] [%]
17 | COCCOc1ccc(S(=O)(=O)N2CCCC(NC(=O)CCc3ccccc3)C2)cc1 (centres unmarked) [#17] | – | – | 53.4 | 16.1 | 91.6
18 | O=C(NCCc1ccccc1)C1CCCN(S(=O)(=O)c2ccc(N3CCOCC3)cc2)C1 (centres unmarked) [#24] | – | – | 32.6 | 10.2 | 70.9
19 | CN1CCN(c2ccc(S(=O)(=O)N3CCCC(NC(=O)CCc4ccccc4)C3)cc2)CC1 (centres unmarked) [#18] | – | – | 41.5 | 31.2 | 52.7
20 | CC(C)COc1ccc(S(=O)(=O)N2CCCC(NC(=O)CCc3ccccc3)C2)cc1 (centres unmarked) [#6] | – | – | 10.7 | 2.7 | 54.3
21 | O=S(=O)(c1ccccc1)C1CN(S(=O)(=O)c2ccc(N3CCOCC3)cc2)C1 [#11] | – | – | 80.9 | 9.9 | 44
22 | O=C(CCc1ccccc1)NC1CCCN(c2ccc(S(=O)(=O)N3CCCCC3)cc2)C1 (centres unmarked) [#54] | – | – | -9.3 | 1.5 | 81.7
23 | O=C(CCc1ccccc1)NC1CCCN(c2ccc(S(=O)(=O)NCc3ccco3)cc2)C1 (centres unmarked) [#52] | – | – | 36.9 | 2.2 | 45.8
24 | CC(C)N(C(C)C)S(=O)(=O)c1ccc(N2CCCC(NC(=O)CCc3ccccc3)C2)cc1 (centres unmarked) [#49] | – | – | 1.4 | 2.6 | 55.9
25 | O=C(CCc1ccccc1)NC1CCCN(S(=O)(=O)c2ccc(OCc3ccccc3)cc2)C1 (centres unmarked) [#4] | – | – | 38.4 | 8.2 | 64.9
26 | O=C(CCc1ccccc1)N1CCN(S(=O)(=O)c2ccc(N3CCCC3)cc2)CC1 [#35] | – | – | 23.6 | 3.3 | 70.6
27 | CC(C)(C)OC(=O)N1CCN(c2ccc(S(=O)(=O)N3CCCC(C(=O)NCCc4ccccc4)C3)cc2)CC1 (centres unmarked) [#36] | – | – | 47.3 | 11.5 | 61.8
28 | CN(C)c1ccc(S(=O)(=O)N2CCCC(NC(=O)CCc3ccccc3)C2)cc1 (centres unmarked) [#14] | – | – | -6.1 | 1.4 | 54.3
29 | O=C(CCc1ccccc1)NC1CCCN(S(=O)(=O)c2ccc(N3CCOCC3)cc2)C1 (centres unmarked) [#12] | – | – | 44.3 | 6.7 | 41.8
30 | O=C(CCc1ccccc1)NC1CCCN(S(=O)(=O)c2ccc(-n3cc(Br)cn3)cc2)C1 (centres unmarked) [#9] | – | – | 10.2 | 16 | 76.9
31 | CC(C)(C)OC(=O)N1CCN(c2ccc(S(=O)(=O)N3CCN(C(=O)CCc4ccccc4)CC3)cc2)CC1 [#31] | – | – | 12.9 | 3 | 64
32 | O=C(CCc1ccccc1)NC1CCCN(S(=O)(=O)c2ccc(F)c(Cl)c2)C1 (centres unmarked) [#43] | – | – | 23.5 | 3 | 71.1
